Experimental data: patent US8114581B2, “Methods and compositions for detecting neoplastic cells” (The Regents of the University of California, priority 2005, dated 2012)

Key:
Assay type in all cases: cell-based
[1] = molecular target: T1, Src (Homo sapiens, UniProt P12931); test: Fibronectin-coated bead / laser-tweezer force-induced FRET response in HUVECs; conditions: HUVECs expressing Src reporter, PP1 10 uM
T1 construct: endogenous in cells; host or cells: HeLa
Experimental: (§1) To image the mechanical-force-induced Src activation, HUVECs were first starved with 0.5% FBS for 24 h and then kept in CO2-independent medium without serum (Gibco BRL) at 37° C. in a thermostatic chamber. A Zeiss axiovert inverted microscope equipped with a 440DF20 excitation filter and a 455DRLP dichroic mirror was integrated with the laser-tweezers. CFP and YFP emission images were acquired simultaneously with an ORCA ER CCD camera (Hamamatsu) through a Dual-View module (Optical-Insights). The CFP and YFP images were aligned pixel-by-pixel with our customized Matlab program by maximizing the normalized cross correlation coefficient of CFP and YFP fluorescence intensity images:
(§2) By taking the derivative of rho 2/B(κ) in Otsu's method 30 and calculating its first local minimum, a non parametric method was developed to calculate the intensity threshold to differentiate the edges of HUVECs from the background in CFP or YFP fluorescence intensity images. The intensity threshold was used to generate a binary mask image with values outside the cell set at zero to select the pixels located within the cell body in the CFP/YFP emission ratio images. […] For statistical analysis of long-range activation of Src, a pixel located within a cell at a given time is defined as ‘distally activated’ when: (1) its emission ratio value is above a certain percentage (98%, 90%, 80% and 50% were used as the thresholds) of pixel population in the same cell after 15 min of force stimulation, and (2) the distance between the pixel and the centre of the force-imposed bead is larger than half of the virtual radius of the cell, as shown in the following formula: […]
(§3) This critical force is a measure of the maximum trapping force, at a given laser power, exerted on the bead. […] Since the maximum trapping force occurs when the laser focus is away from the center and close to the edge of the bead, the experimental trapping force with the laser focused at 3.7 um off the bead center in our experiments was calculated from the Ashkin model of trapping force to be 300 pN. […]

[2] = molecular target: T1, Src; test: EGF-induced FRET response of Src reporter in HeLa cells
Experimental: The HeLa or MEF cells expressing the desired exogenous proteins were starved with 0.5% FBS for 36-48 h before being subjected to EGF (50 ng ml^−1) or PDGF (10 ng ml^−1) stimulation. During imaging, the cells were maintained in Hanks' balanced salt solution (HBSS) with 20 mMHEPES (pH 7.4) and 2 g 1^−1 D-glucose at 25° C. Images were collected by using MetaFluor 6.0 software (Universal Imaging) with a 440DF20 excitation filter, a 455DRLP dichroic mirror, and two emission filters controlled by a filter changer (480DF30 for CFP and 535DF25 for YFP).
The various plasmids were transfected into HeLa, MEF, SYF−/−, or 293 cells at 80% confluence using the lipofectamine method (Invitrogen). The RetroMax retroviral expression system (Imgenex) was used to introduce genes into HUVECs. Various Src reporters incorporated in PCLNCX vector were co-transfected with PCL-Ampho packaging vector into 293 cells by using lipofectamine. The supernatant of […] 293 cells was collected after 2 days of transfection and filtered through 0.45 um pore filters. HUVECs were infected with 1:1 mixture of the collected supernatant and fresh EGM in the presence of 8 ug/ml polybrene.

[3] = tested on: Src; test: Fibronectin-coated bead / laser-tweezer force-induced FRET response in HUVECs; conditions: HUVECs, membrane-targeted reporter, 300 pN; 1 hr incubation (cytochalasin D 0.2 uM, Nocodazole 1 uM); distal, but not local, responses
Experimental: as §1, §2, §3

T1 sequence (P12931 whole entry, species assumed): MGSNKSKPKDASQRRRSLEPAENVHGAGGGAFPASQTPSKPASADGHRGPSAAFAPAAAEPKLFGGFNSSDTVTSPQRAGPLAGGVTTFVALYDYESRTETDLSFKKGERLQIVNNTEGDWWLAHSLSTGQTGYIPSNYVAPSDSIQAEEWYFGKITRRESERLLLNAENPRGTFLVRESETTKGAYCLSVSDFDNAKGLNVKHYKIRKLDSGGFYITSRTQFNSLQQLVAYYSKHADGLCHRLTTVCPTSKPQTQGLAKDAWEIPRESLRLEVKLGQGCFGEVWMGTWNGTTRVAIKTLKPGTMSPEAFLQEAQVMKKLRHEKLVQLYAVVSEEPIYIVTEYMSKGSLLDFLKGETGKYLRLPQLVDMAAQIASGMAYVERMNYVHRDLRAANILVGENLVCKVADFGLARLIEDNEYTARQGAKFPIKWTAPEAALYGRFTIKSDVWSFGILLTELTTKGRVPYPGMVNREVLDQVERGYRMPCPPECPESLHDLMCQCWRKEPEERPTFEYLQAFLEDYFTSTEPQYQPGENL

In the case of `Cc1ccc(-c2nn(C(C)(C)C)c3ncnc(N)c23)cc1` [PP1], the “effect on local FRET response caused by fibronectin-coated beads” value [1] is reported as “reversible”, the “effect on EGF-induced FRET response of membrane-targeted reporter, inhibitor added after EGF” value ([2]; EGF 50 ng/ml, PP1 10 uM) is reported as “reversed” and the “effect on EGF-induced FRET response of membrane-targeted reporter, pretreatment with inhibitor” value ([2]; PP1 10 uM for 1 hr before EGF 50 ng/ml) is reported as “prevented”. The “effect on EGF-induced FRET response of Src reporter, inhibitor added after EGF” value ([2]; cytosolic Src reporter) was “reversed” and the “effect on EGF-induced FRET response of Src reporter, pretreatment with inhibitor” value ([2]; cytosolic Src reporter) was “markedly reduced”.

`C=C1[C@@H](C)[C@H]2[C@H](Cc3ccccc3)NC(=O)[C@]23[C@H](OC(C)=O)/C=C/[C@@](C)(O)C(=O)[C@@H](C)C/C=C/[C@H]3[C@@H]1O` [cytochalasin D] was tested, and the “effect on force-induced distal FRET responses” value [3] was “blocked”.

In the case of `COC(=O)Nc1nc2ccc(C(=O)c3cccs3)cc2[nH]1` [nocodazole], the “effect on force-induced distal FRET responses” value [3] is reported as “blocked”.
